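Exposure lasted 48 hours, with cells grown in 96-well plates and compounds tested at five concentrations. GI50 = concentration required for 50% inhibition of growth.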 The source made the active and inactive calls. Rule as the data show it: active = GI50 up to about 1.1 µM and inactive = higher.
Assays:
Assay in all cases: inhibition of tumour cell growth, NCI panel, 48 h
DMS-273 = test system: DMS-273
DLD-1 = test system: DLD-1
HOP-18 = test system: HOP-18
SNB-78 = test system: SNB-78
KM-20L2 = test system: KM-20L2
M19-MEL = test system: M19-MEL
DMS-114 = test system: DMS-114
BT-549 = test system: BT-549
RXF 631 = test system: RXF 631

Structure (SMILES)	GI50 (DMS-273)	GI50 (DLD-1)	GI50 (KM-20L2)	GI50 (M19-MEL)	GI50 (BT-549)	also measured
Cc1cc(=O)oc2c1cc(OCC(=O)OCCN1CCCCC1)c1occ(C)c12	> 100 µM (inactive)	> 100 µM (inactive)	> 100 µM (inactive)	> 100 µM (inactive)		GI50 (HOP-18): > 100 µM (inactive); GI50 (SNB-78): > 100 µM (inactive); GI50 (DMS-114): > 100 µM (inactive)
CC(=O)O[C@@H]1O[Si](C(C)(C)C)(C(C)(C)C)[C@H](C)[C@H]1C					> 100 µM (inactive)	
CC(C)N(c1cc2c(cc1F)c(=O)c(C(=O)O)cn2-c1ccc(N2CCN(C)CC2)cn1)C(C)C					86.7 µM (inactive)	
N#CC1CCCCC1NC1(C#N)CCCCC1 (configuration not stated)	> 100 µM (inactive)	> 100 µM (inactive)	> 100 µM (inactive)			GI50 (SNB-78): > 100 µM (inactive); GI50 (DMS-114): > 100 µM (inactive)
Cc1cc(C)c2c(c1C)CN1CN2Cc2c(C)c(C)cc(C)c21	6.56 µM (inactive)	20.8 µM (inactive)		30.5 µM (inactive)		GI50 (HOP-18): 83.6 µM (inactive); GI50 (SNB-78): 42.6 µM (inactive); GI50 (DMS-114): 2.92 µM (inactive)
Cc1c(/C=N\NC(=S)N(C)CCN(C)C(=S)N/N=C\c2c(C)n(C)n(-c3ccccc3)c2=O)c(=O)n(-c2ccccc2)n1C					> 100 µM (inactive)	
COC(=O)C(C(=O)C(=O)Nc1ccccc1C)c1nc2ccc([N+](=O)[O-])cc2nc1O (configuration not stated)	> 100 µM (inactive)	> 100 µM (inactive)	> 100 µM (inactive)	> 100 µM (inactive)		GI50 (HOP-18): > 100 µM (inactive); GI50 (SNB-78): > 100 µM (inactive); GI50 (DMS-114): > 100 µM (inactive)
CC(C)(CN)CN					> 100 µM (inactive)	
CCCCCCCCCC[C@H](O)[C@H](O)CC[C@@H](O)[C@H]1CC[C@@H]([C@H]2CC[C@H](CCCCCCC[C@@H](O)CC3=C[C@H](C)OC3=O)O2)O1					37.5 µM (inactive)	
CC1(C)OC(C[C@]2(C#N)C[C@H](CCl)OC(C)(C)O2)C[C@@H](C[C@]2(C#N)C[C@H](CCl)OC(C)(C)O2)O1 (some centres not stated)	> 100 µM (inactive)	> 100 µM (inactive)	> 100 µM (inactive)	> 100 µM (inactive)		GI50 (HOP-18): > 100 µM (inactive); GI50 (SNB-78): > 100 µM (inactive)
CC(NC(=O)CNP(=O)(c1ccccc1)c1ccccc1)C(=O)NC(Cc1ccccc1)C(=O)OCc1ccccc1 (configuration not stated)					> 100 µM (inactive)	
O=C(O)C12C3C4C1C1C2C3C41I (configuration not stated)	> 100 µM (inactive)	> 100 µM (inactive)	> 100 µM (inactive)	> 100 µM (inactive)		GI50 (RXF 631): > 100 µM (inactive); GI50 (SNB-78): > 100 µM (inactive); GI50 (DMS-114): > 100 µM (inactive)
COC(=O)CC[C@@H](NC(=O)C(C)NC(=O)COC1C(O)C(COC(=O)CCCCCCCCCCNC(=O)c2ccc([N+](=O)[O-])c3[nH]c4cc(Br)ccc4c(=O)c23)OC(OCc2ccccc2)C1NC(C)=O)C(N)=O (some centres not stated)	> 100 µM (inactive)	35.4 µM (inactive)	> 100 µM (inactive)	50.8 µM (inactive)		GI50 (HOP-18): 35.7 µM (inactive); GI50 (SNB-78): 71.8 µM (inactive); GI50 (DMS-114): 35.6 µM (inactive)
Cc1cc(C)cc(C(=N)c2ccccc2Cc2cccc3ccccc23)c1					37.8 µM (inactive)	
Nc1nc(NCCCO)cc(=O)[nH]1					> 100 µM (inactive)	
CC(=O)[C@@H]1[C@@H](OC(=O)CCC(C)COC2OC(CO)C(O)C(O)C2O)C[C@H]2[C@@H]3CC=C4C[C@@H](OC5OC(CO)C(OC6OC(C)C(O)C(O)C6O)C(O)C5OC5OC(C)C(O)C(O)C5O)CC[C@]4(C)[C@H]3CC[C@]12C (some centres not stated)					> 100 µM (inactive)	
COc1cccc(C2c3cc4c(cc3OC(NNc3ccccc3)C2C)OCO4)c1OC (configuration not stated)					7.28 µM (inactive)	
COc1cc(CC2C(=O)OCC2[C@@H](OC(C)=O)c2ccc3c(c2)OCO3)c(Br)c(OC)c1OC (some centres not stated)	30.7 µM (inactive)	> 100 µM (inactive)	44 µM (inactive)	37.8 µM (inactive)		GI50 (HOP-18): > 100 µM (inactive); GI50 (DMS-114): 28 µM (inactive)
COc1cc(Br)c(OC)c2c(OC)cc(C)cc12					96.6 µM (inactive)	
O=[N+]([O-])c1ccc(S(=O)(=O)Cc2ccccc2)c([N+](=O)[O-])c1					2.1 µM (inactive)	
N#Cc1c(-c2ccc(Cl)cc2)cc(-c2ccc(Nc3ccnc4cc(C(F)(F)F)ccc34)cc2)[nH]c1=O					17.4 µM (inactive)	
Cc1ccc([N+](=O)[O-])cc1NC(=O)C(=O)C1CCC2=C(Sc3ccccc3N2)C1=O (configuration not stated)					> 100 µM (inactive)	
CCOC(=O)C(C)(C)Oc1ccc2c(C)c(-c3ccc(Cl)cc3)c(=O)oc2c1	37.6 µM (inactive)	47.6 µM (inactive)	33.2 µM (inactive)	54.2 µM (inactive)		GI50 (RXF 631): 32.6 µM (inactive); GI50 (DMS-114): 20.4 µM (inactive)
CN(C)C(=O)Oc1ccc(C(=S)Nc2ccccc2)cc1					32 µM (inactive)	
COC[C@H](Cc1ccccc1)/N=C/c1ccccc1					> 100 µM (inactive)	
O=c1[nH]c2ccccc2nc1CBr	1.61 µM (inactive)	8.87 µM (inactive)	14.1 µM (inactive)	10.2 µM (inactive)	9.27 µM (inactive)	GI50 (HOP-18): 6.93 µM (inactive); GI50 (SNB-78): 16.1 µM (inactive)
Cc1cc(-c2nc3ccccc3s2)ccc1N					48.3 µM (inactive)	
COP1(=O)OCc2cnccc2O1 (configuration not stated)					> 100 µM (inactive)	

Reference: ChEMBL document CHEMBL1201862, “PubChem BioAssay data set” (2004)
